From US20260176260A1, “DUAL RAF AND TUBULIN INHIBITORS AND METHODS OF USE THEREOF” (Deciphera Pharmaceuticals, LLC, priority 2023, published 2026)

Experiments:
B-Raf kinase = molecular target: T1, B-Raf kinase (Homo sapiens, UniProt P15056); assay: Biochemical assay for B-Raf (coupled pyruvate kinase/lactate dehydrogenase); conditions: Table 1, inhibition of biochemical activity; read-out: BRAF
T1 construct: purchased Sigma

C-Raf kinase = molecular target: T2, C-Raf kinase (Homo sapiens, UniProt P04049, Y340D/Y341D); assay: Biochemical assay for C-Raf (coupled pyruvate kinase/lactate dehydrogenase); conditions: Table 1, inhibition of biochemical activity; read-out: CRAF
T2 construct: C-Raf residues 306-end; Y340D, Y341D with N-; purchased Sigma
T2 sequence (P04049 307-648 Y340D/Y341D): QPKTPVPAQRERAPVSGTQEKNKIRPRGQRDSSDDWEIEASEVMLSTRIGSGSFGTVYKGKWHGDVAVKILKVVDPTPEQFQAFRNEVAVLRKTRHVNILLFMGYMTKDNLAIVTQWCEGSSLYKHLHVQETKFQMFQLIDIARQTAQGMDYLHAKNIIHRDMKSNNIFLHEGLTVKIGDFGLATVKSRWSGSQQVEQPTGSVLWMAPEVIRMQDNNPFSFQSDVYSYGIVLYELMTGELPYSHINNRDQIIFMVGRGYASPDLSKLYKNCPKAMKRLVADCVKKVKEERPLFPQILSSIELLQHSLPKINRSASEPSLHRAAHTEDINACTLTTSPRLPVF

MiaPaca-2 cells = assay: MiaPaca-2 cell proliferation assay (resazurin); assay type: cell-based; conditions: Homo sapiens, MIA PaCa-2; Table 2, inhibition of cell proliferation; read-out: MiaPaca-2
Protocol: MiaPaca-2 cells (catalog #CRL-1420) are obtained from the American Type Culture Collect (ATTC, Manassas, VA). Briefly, cells were grown in DMVEM supplemented with […] fetal bovine serum (Invitrogen, Carlsbad, CA), 2.5% New Zealand sourced horse serum and 1% Penicillin/Streptomycin/L-Glutamine at 37° C., […], and […]. Cells are expanded until reaching […] at which point they are sub-cultured or harvested for assay use. For assays completed in 96-well plates, a serial dilution of test compound is dispensed into a 96-well black clear bottom plate in triplicate. Three thousand cells are added per well in 200 μL complete growth medium in the 96-well plate. Plates are incubated for 67 to 72 h at 37° C., 5% CO2, and 95% humidity. At the end of the incubation, 40 μL of a […] solution of resazurin (Sigma, St. Louis, MO) in PBS is added to each well of the plate and plates are incubated for an additional 5 to 6 h at 37° C., 5% CO2, and 95% humidity. For 384-well assays, a threefold, 8-point serial dilution of compound was spotted column wise into a 384 well black, clear bottom, tissue culture treated plate using the Beckman Coulter Echo 650. Likewise, a threefold, 8-point serial dilution of cobimetinib was spotted row wise into the 384 well black, clear bottom plate containing compound. DMSO concentration was constant across all wells at 0.4%. Seven hundred fifty cells are added per well in 50 μL complete growth medium in each 384-well plate. Plates are incubated for 67 to 72 h at 37° C., 5% CO2, and 95% humidity. At the end of the incubation, 10 μL of a 440 μM solution of resazurin (Sigma, St. Louis, MO) in PBS is added to each well of the plate and plates are incubated for an additional 4 to 6 h at 37° C., 5% CO2, and 95% humidity. Plates are read on a Synergy2 or equivalent reader (Biotek, Winooski VT) using an excitation of 540 nm and an emission of 600 nm. Data is analyzed using Prism software (Graphpad, San Diego, CA) to calculate IC50 values.

HCT-116 cells = assay: HCT-116 cell proliferation assay (resazurin); assay type: cell-based; conditions: Homo sapiens; Table 2, inhibition of cell proliferation; read-out: HCT-116
Protocol: HCT-116 cells (catalog #CCL-247) are obtained from the American Type Culture Collect (ATCC, Manassas, VA). Briefly, cells are grown in McCoy's 5A supplemented with 10% characterized fetal bovine serum (Invitrogen, Carlsbad, CA) and 1% Penicillin/Streptomycin/L-Glutamine at 37° C., 5% CO2, and 95% humidity. Cells are expanded until reaching 70-95% confluency at which point they are sub-cultured or harvested for assay use. A serial dilution of test compound is dispensed into a 384-well black clear bottom plate in triplicate. 375 cells are added per well in 50 μL complete growth medium in the 384-well plate. Plates are incubated for 67 to 72 h at 37° C., 5% CO2, and 95% humidity. At the end of the incubation, 40 μL of a […] solution of resazurin (Sigma, St. Louis, MO) in PBS is added to each well of the plate and plates are incubated for an additional 4 to 5 h at 37° C., 5% CO2, and 95% humidity. Plates are read on a Synergy2 or equivalent reader (Biotek, Winooski, VT) using an excitation of 540 nm and an emission of 600 nm. Data is analyzed using Prism software (Graphpad, San Diego, CA) to calculate IC50 values.

HPAF-II cells = assay: HPAF-II cell proliferation assay (resazurin); assay type: cell-based; conditions: Homo sapiens; Table 2, inhibition of cell proliferation; read-out: HPAF-II
Protocol: (§1) HPAF-II cells (catalog #CRL-1997) are obtained from the American Type Culture Collect (ATCC, Manassas, VA). Briefly, cells are grown in Minimum Essential Media supplemented with 10% characterized fetal bovine serum (Invitrogen, Carlsbad, CA) and 1% Penicillin/Streptomycin/L-Glutamine at 37° C., 5% CO2, and 95% humidity. Cells are expanded until reaching 70-95% confluency at which point they are sub-cultured or harvested for assay use. A serial dilution of test compound is dispensed into a 384-well black clear bottom plate in triplicate. 750 cells are added per well in 50 μL complete growth medium in the 384-well plate. Plates are incubated for 115 to 120 h at 37° C., 5% CO2, and 95% humidity. At the end of the incubation, 40 μL of a […] solution of resazurin (Sigma, St. Louis, MO) in PBS is added to each well of the plate and plates are incubated for an additional 18 to 24 h at 37° C., 5% CO2, and 95% humidity. Plates are read on a Synergy2 or equivalent reader (Biotek, Winooski, VT) using an excitation of 540 nm and an emission of 600 nm. Data is analyzed using Prism software (Graphpad, San Diego, CA) to calculate IC50 values.

Pa16c cells = assay: Pa16c cell proliferation assay (resazurin); assay type: cell-based; conditions: Table 2, inhibition of cell proliferation
Protocol: as §1, with “Pa16c” for “HPAF-II”, “cells” for “cells (catalog #CRL-1997)”, “Dr. Channing Der, University of North Carolina at Chapel Hill.” for “the American Type Culture Collect (ATCC, Manassas, VA).”, “Dulbecco's Modified Eagle Medium” for “Minimum Essential Media”, “67” for “115”, “72” for “120”

T1 sequence (P15056 416-766): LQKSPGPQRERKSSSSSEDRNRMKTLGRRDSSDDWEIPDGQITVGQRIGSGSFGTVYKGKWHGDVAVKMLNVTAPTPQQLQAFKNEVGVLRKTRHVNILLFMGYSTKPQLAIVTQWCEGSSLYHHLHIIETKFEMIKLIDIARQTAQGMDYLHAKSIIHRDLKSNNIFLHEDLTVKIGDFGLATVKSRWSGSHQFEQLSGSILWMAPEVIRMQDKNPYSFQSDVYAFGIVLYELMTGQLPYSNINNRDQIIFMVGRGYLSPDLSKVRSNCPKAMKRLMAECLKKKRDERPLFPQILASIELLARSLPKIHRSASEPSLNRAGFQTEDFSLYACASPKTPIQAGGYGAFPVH

SMILES | IC50 (B-Raf kinase) [nM] | IC50 (C-Raf kinase) [nM] | IC50 (MiaPaca-2 cells) [nM] | IC50 (HCT-116 cells) [nM] | IC50 (HPAF-II cells) [nM] | IC50 (Pa16c cells) [nM]
CNC(=O)c1cc(-c2cc(-c3cc(NC(=O)c4cc(C(F)(F)F)cnn4)ccc3C)cc(OCCO)n2)ccn1 [Example 35] | < 100 | < 100 | 100 to 500 | 100 to 500 | 100 to 500 | 100 to 500
CNC(=O)c1cc(-c2cc(-c3cc(NC(=O)c4cc(Cl)cnn4)ccc3C)ccn2)ccn1 [Example 36] | 100 to 500 | < 100 | 500 to 1000 | 500 to 1000 | 1000 to 10000 | 1000 to 10000
CCc1ccc(NC(=O)c2cc(C(F)(F)F)cnn2)cc1-c1ccnc(-c2ccnc(C(=O)NC)c2)c1 [Example 37] | 1000 to 10000 | 1000 to 10000 | 1000 to 10000 | 1000 to 10000 | 1000 to 10000 | 1000 to 10000
CNC(=O)c1cc(-c2cc(-c3cc(NC(=O)c4cc(C(C)(F)F)cnn4)ccc3C)cc(N[C@H](C)CO)n2)ccn1 [Example 38] | < 100 | < 100 | 100 to 500 | 100 to 500 | 100 to 500 | 100 to 500
CNC(=O)c1cc(-c2cc(N[C@H](C)CO)nc(-c3cc(NC(=O)c4cc(C(F)(F)F)cnn4)ccc3C)n2)ccn1 [Example 39] | 100 to 500 | 100 to 500 | 1000 to 10000 | 1000 to 10000 | 1000 to 10000 | 1000 to 10000
CNC(=O)c1cc(-c2cc(-c3cc(NC(=O)c4cnc(C(F)(F)F)nc4)ccc3C)ccn2)ccn1 [Example 41] | 1000 to 10000 | 1000 to 10000 | 500 to 1000 | 100 to 500 | 100 to 500 | 100 to 500
CNC(=O)c1cc(-c2cc(-c3cc(NC(=O)c4cc(C(C)(F)F)cnn4)ccc3C)cc(NCCO)n2)ccn1 [Example 42] | < 100 | < 100 | < 100 | < 100 | 100 to 500 | 100 to 500
CNC(=O)c1cc(-c2cc(-c3cc(NC(=O)c4cc(C(C)(F)F)cnn4)ccc3C)cc(OCCO)n2)ccn1 [Example 43] | < 100 | < 100 | 500 to 1000 | 100 to 500 | 100 to 500 | 100 to 500
CNC(=O)c1cc(-c2cc(-c3cc(NC(=O)c4ccc(C(F)(F)F)nc4)ccc3C)cc(N[C@H](C)CO)n2)ccn1 [Example 44] | 100 to 500 | 100 to 500 | 1000 to 10000 | 1000 to 10000 | 1000 to 10000 | 1000 to 10000
CNC(=O)c1cc(-c2cc(-c3cc(NC(=O)c4cnc(C(F)(F)F)nc4)ccc3C)cc(N[C@H](C)CO)n2)ccn1 [Example 45] | 100 to 500 | 100 to 500 | 1000 to 10000 | 1000 to 10000 | 1000 to 10000 | 1000 to 10000
